# Measurements published in patent publication US8129371B2, “Thienopyrimidine and pyrazolopyrimidine compounds and their use as mTOR kinase and PI3 kinase inhibitors” (Wyeth LLC, priority 2007, dated 2012).
# Like-named read-outs stand apart in the source and are kept apart here.
# How the values were obtained:
# PI3K [1] = target: T1, PI3K (Homo sapiens, UniProt P48736); assay: Fluorescence polarization assay for PI3K; type: biochemical; conditions: read-out: PI3 Kinase γ IC50
# T1 construct: PI3 Kinase γ IC50; other: PI3 Kinase γ; other: PI3 Kinase γ isoform, fluorescence polarization
# Method: (§1) This assay is used to determine the IC50 of compounds of the present invention as it identifies inhibitors of PI3 kinase by measuring inhibition.
# (§2) The assay is run by placing 5 μL of diluted enzyme per well, then 5 μL of diluted compound (or 9.5 μL enzyme then 0.5 μL compound in DMSO) is added and mixed. Then, 10 μL substrate is added to start the reaction. The samples are incubated 30-60 minutes, then the reaction is stopped by adding 20 μL stop/detector mix. PI3K is diluted with reaction buffer (e.g., 5 μL or 7.5 μL PI3K into 620 μL reaction buffer), and 5 μL of diluted enzyme is used per well. 5 μL reaction buffer or drug diluted in buffer (e.g., 4 μL/100 so final DMSO is 1% in reaction) is added to each. Pipetting up and down mixes the samples. Alternatively, the enzyme can be diluted to 1215 μL. In this case 9.8 μL is added per well and 0.2 μL compound is added in DMSO. To prepare 1 mL of substrate solution, 955 μL reaction buffer, 40 μL PIP2, and 2.5 μL ATP are mixed. 10 μL of substrate is added to each well to start the reaction.
# (§3) Stop/detector mix is prepared by mixing 4 μL Red detector and 1.6 μL or 2.0 μL GST-GRP with 1 mL Stop buffer, which results in 10 nM probe and 70 nM GST-GRP). 20 μL of the stop/detector mix is added to each well to stop the reaction. The plates are read after 30-90 minutes keeping the red probe solutions dark. For the zero time point, stop/detector mix is added to the enzyme just before adding substrate. For an extra control, stop/detector mix is added to buffer (no enzyme) and substrate or to just buffer (no substrate). […] Plates are read on machines with filters for Tamra. The units are mP with no enzyme controls reading app 190-220 mP units. Fully active enzyme reduces fluorescence polarization down to 70-100 mP after 30 minutes.
# PI3K [2] = target: T2, PI3K (Homo sapiens, UniProt P42336); assay: Fluorescence polarization assay for PI3K; type: biochemical; conditions: read-out: PI3 Kinase α IC50
# T2 construct: PI3 Kinase α IC50; other: PI3 Kinase α; other: PI3 Kinase α isoform, fluorescence polarization
# Method: as §1, §2, §3
# Human mTOR (FLAG-TOR) = target: T3, Human mTOR (FLAG-TOR) (Homo sapiens, UniProt P42345); assay: Human mTOR kinase assay with purified enzyme, DELFIA format; type: biochemical
# T3 construct: FLAG
# Method: Enzymes are first diluted in kinase assay buffer (10 mM HEPES (pH 7.4), 50 mM NaCl, 50 mM β-glycerophosphate, 10 mM MnCl2, 0.5 mM DTT, 0.25 mM microcystin LR, and 100 mg/mL BSA). To each well, 12 μL of the diluted enzyme is mixed briefly with 0.5 μL test inhibitor or control vehicle dimethylsulfoxide (DMSO). […] The reaction plate is incubated for 2 hours (linear at 1-6 hours) at room temperature with gentle shaking and then terminated by adding 25 μL Stop buffer (20 mM HEPES (pH 7.4), 20 mM EDTA, 20 mM EGTA). […] The DELFIA Assay buffer and Enhancement solution can be purchased from PerkinElmer. 45 μL of the terminated kinase reaction mixture is transferred to a MaxiSorp plate (Nunc) containing 55 μL PBS. The His6-S6K is allowed to attach for 2 hours after which the wells are aspirated and washed once with PBS. 100 μL of DELFIA Assay buffer with 40 ng/mL Eu—P(T389)-S6K antibody is added. The antibody binding is continued for 1 hour with gentle agitation. The wells are then aspirated and washed 4 times with PBS containing 0.05% Tween-20 (PBST). 100 μL of DELFIA Enhancement solution is added to each well and the plates are read in a PerkinElmer Victor model plate reader. Data obtained is used to calculate enzymatic activity and enzyme inhibition by potential inhibitors.
# breast line MDA468 = assay: In vitro cell culture growth assay (MTS), MDA468; type: cell-based; conditions: Homo sapiens, 72 h, MDA468 cells, three days after drug treatment
# Method: Human tumor cell lines used include prostate lines LNCap and PC3MM2, breast lines MDA468, MCF7, renal line HTB44 (A498), colon line HCT116, and ovarian line OVCAR3. Cells were plated in 96-well culture plates. One day following plating, the inhibitors were added to cells. Three days after drug treatment, viable cell densities were determined by metabolic conversion (by viable cells) of the dye MTS, a well-established cell proliferation assay. The assays were performed using an assay kit purchased from Promega Corp. (Madison, Wis.) following the protocol supplied with the kit. The MTS assay results were read in a 96-well plate reader by measuring absorbance at 490 nm. The effect of each treatment was calculated as percent of control growth relative to the vehicle-treated cells grown in the same culture plate.
# [3] = PI3 Kinase γ isoform, fluorescence polarization
# [4] = PI3 Kinase α isoform, fluorescence polarization
# [5] = purified human mTOR enzyme, DELFIA format
# T2 sequence (P42336 whole entry, canonical isoform): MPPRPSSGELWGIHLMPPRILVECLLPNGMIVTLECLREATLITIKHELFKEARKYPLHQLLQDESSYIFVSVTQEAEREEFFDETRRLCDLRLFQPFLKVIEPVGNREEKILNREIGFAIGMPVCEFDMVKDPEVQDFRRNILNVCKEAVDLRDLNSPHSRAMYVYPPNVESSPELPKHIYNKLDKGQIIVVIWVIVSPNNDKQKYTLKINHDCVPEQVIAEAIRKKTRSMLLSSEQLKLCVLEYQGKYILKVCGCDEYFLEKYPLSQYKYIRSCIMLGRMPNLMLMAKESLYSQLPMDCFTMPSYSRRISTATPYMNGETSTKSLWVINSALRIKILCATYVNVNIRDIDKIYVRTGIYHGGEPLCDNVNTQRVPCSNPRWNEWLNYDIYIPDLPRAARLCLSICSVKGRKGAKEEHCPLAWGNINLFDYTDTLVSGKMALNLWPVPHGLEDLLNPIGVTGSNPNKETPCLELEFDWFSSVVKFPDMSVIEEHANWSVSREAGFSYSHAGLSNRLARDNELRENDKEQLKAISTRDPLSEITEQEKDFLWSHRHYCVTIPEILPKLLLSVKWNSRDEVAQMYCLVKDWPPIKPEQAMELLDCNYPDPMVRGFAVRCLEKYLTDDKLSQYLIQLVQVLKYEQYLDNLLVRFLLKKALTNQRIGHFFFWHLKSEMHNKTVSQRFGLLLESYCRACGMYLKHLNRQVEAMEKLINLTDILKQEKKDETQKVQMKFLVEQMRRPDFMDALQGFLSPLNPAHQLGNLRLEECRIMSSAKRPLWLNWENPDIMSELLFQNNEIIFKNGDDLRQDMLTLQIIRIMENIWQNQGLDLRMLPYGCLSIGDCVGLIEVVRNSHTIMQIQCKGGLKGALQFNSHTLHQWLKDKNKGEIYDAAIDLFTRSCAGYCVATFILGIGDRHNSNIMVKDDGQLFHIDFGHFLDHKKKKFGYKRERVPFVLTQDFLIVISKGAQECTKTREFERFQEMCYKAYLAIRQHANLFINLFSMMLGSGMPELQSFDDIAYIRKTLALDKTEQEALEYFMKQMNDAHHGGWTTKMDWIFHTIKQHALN
# T1 sequence (P48736 whole entry, canonical isoform): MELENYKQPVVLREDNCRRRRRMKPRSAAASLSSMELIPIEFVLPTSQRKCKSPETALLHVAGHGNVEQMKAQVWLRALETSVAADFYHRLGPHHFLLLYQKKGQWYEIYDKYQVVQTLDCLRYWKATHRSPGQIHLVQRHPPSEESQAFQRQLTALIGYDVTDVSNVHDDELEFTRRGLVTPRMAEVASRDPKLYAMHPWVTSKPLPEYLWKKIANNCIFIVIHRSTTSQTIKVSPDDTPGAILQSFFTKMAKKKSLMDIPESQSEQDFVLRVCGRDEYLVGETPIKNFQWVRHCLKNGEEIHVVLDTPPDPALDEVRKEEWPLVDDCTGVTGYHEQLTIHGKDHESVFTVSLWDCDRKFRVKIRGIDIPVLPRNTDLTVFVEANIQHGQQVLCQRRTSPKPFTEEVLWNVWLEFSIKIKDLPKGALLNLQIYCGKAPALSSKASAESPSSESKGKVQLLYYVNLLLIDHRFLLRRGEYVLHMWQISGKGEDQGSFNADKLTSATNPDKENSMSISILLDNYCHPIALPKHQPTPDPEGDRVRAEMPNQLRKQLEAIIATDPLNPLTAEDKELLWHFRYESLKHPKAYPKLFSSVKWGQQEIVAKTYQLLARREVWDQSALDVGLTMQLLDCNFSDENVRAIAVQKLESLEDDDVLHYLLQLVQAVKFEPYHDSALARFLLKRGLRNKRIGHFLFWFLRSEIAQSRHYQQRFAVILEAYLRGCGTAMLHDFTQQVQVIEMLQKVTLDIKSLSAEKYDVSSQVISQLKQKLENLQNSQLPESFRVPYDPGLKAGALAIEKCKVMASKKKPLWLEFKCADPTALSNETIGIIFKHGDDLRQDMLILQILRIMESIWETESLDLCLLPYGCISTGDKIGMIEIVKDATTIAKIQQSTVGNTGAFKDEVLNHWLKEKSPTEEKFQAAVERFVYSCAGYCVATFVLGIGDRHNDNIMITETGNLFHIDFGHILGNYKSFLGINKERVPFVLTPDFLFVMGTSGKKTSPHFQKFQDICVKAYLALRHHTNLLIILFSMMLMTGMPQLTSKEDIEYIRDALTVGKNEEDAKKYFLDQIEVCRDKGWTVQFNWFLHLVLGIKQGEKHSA
Molecule,IC50 (PI3K [1]; [3]) [nM],IC50 (PI3K [2]; [4]) [nM],IC50 (Human mTOR (FLAG-TOR); [5]) [nM],IC50 (PI3K [1]; PI3 Kinase γ) [nM],IC50 (PI3K [2]; PI3 Kinase α) [nM],IC50 (Human mTOR (FLAG-TOR)) [nM],IC50 (breast line MDA468) [nM]
"CNC(=O)Nc1ccc(-c2nc(N3CC4CCC(C3)O4)c3cnn(C4CCC(O)CC4)c3n2)cc1 (centres unmarked) [Example 108, 1-(4-(4-(8-oxa-3-azabicyclo[3.2.1]octan-3-yl)-1-((1r,4r)-4-hydroxycyclohexyl)-1H-pyrazolo[3,4-d]pyrimidin-6-yl)phenyl)-3-methylurea]",–,–,–,> 10000,882,0.24,–
"CNC(=O)Nc1ccc(-c2nc(N3CC4CCC(C3)O4)c3cnn(C4CCC(N5CCN(C)CC5)CC4)c3n2)cc1 (centres unmarked) [Example 329, 1-methyl-3-(4-{1-[4-(4-methylpiperazin-1-yl)cyclohexyl]-4-(8-oxa-3-azabicyclo[3.2.1]oct-3-yl)-1H-pyrazolo[3,4-d]pyrimidin-6-yl}phenyl)urea]",4350,357,1.75,–,–,–,–
"CNC(=O)Nc1ccc(-c2nc(N3CC4CCC(C3)O4)c3cnn(C4CCC(=O)CC4)c3n2)cc1 [Example 63, 1-methyl-3-{4-[4-(8-oxa-3-azabicyclo[3.2.1]oct-3-yl)-1-(4-oxocyclohexyl)-1H-pyrazolo[3,4-d]pyrimidin-6-yl]phenyl}urea]",–,–,–,> 10000,–,0.23,–
"CS(=O)(=O)N1CCN(Cc2cc3nc(-c4ccc(NC(=O)Nc5cccnc5)cc4)nc(N4CC5CCC(C4)O5)c3s2)CC1 [Example 433, 1-{4-[6-{[4-(methylsulfonyl)piperazin-1-yl]methyl}-4-(8-oxa-3-azabicyclo[3.2.1]oct-3-yl)thieno[3,2-d]pyrimidin-2-yl]phenyl}-3-pyridin-3-ylurea]",286,12,0.56,–,–,–,60
"CC(C)C(=O)N1CCC(n2ncc3c(N4CC5CCC(C4)O5)nc(-c4ccc(N)cc4)nc32)CC1 [Example 80, 4-[1-(1-isobutyrylpiperidin-4-yl)-4-(8-oxa-3-azabicyclo[3.2.1]oct-3-yl)-1H-pyrazolo[3,4-d]pyrimidin-6-yl]aniline]",–,–,–,> 10000,> 10000,100,–
"CNC(=O)Nc1ccc(-c2nc(N3CC4CCC(C3)O4)c3cnn(C4CCC5(CC4)OCCO5)c3n2)cc1 [Example 62, 1-{4-[1-(1,4-dioxaspiro[4.5]dec-8-yl)-4-(8-oxa-3-azabicyclo[3.2.1]oct-3-yl)-1H-pyrazolo[3,4-d]pyrimidin-6-yl]phenyl}-3-methylurea]",–,–,–,> 10000,2010,0.16,–
"N~2~,N~2~-dimethyl-N-{4-[({4-[1-methyl-4-(8-oxa-3-azabicyclo[3.2.1]oct-3-yl)-1H-pyrazolo[3,4-d]pyrimidin-6-yl]phenyl}carbamoyl)amino]phenyl}glycinamide [Example 258]",–,–,–,1410,346,3.95,–
"N-{4-[({4-[1-methyl-4-(8-oxa-3-azabicyclo[3.2.1]oct-3-yl)-1H-pyrazolo[3,4-d]pyrimidin-6-yl]phenyl}carbamoyl)amino]phenyl}acetamide [Example 259]",–,–,–,2720,1050,2.4,–
"CCNC(=O)Nc1ccc(-c2nc(N3CC4CCC(C3)O4)c3cnn(C4CCC(OC)CC4)c3n2)cc1 (centres unmarked) [Example 301, 1-ethyl-3-{4-[1-(4-methoxycyclohexyl)-4-(8-oxa-3-azabicyclo[3.2.1]oct-3-yl)-1H-pyrazolo[3,4-d]pyrimidin-6-yl]phenyl}urea]",> 10000,2030,0.335,–,–,–,–
"CNC(=O)Nc1ccc(-c2nc(N3CC4CCC(C3)O4)c3cnn([C@H]4CC[C@@H](O)CC4)c3n2)cc1 [Example 109, 1-(4-(4-(8-oxa-3-azabicyclo[3.2.1]octan-3-yl)-1-((1s,4s)-4-hydroxycyclohexyl)-1H-pyrazolo[3,4-d]pyrimidin-6-yl)phenyl)-3-methylurea]",–,–,–,> 10000,227,0.3,–

# Second part, led by results:
IC50 (PI3K [1]; [3]) [nM],IC50 (PI3K [2]; [4]) [nM],IC50 (Human mTOR (FLAG-TOR); [5]) [nM],IC50 (PI3K [1]; PI3 Kinase γ) [nM],IC50 (PI3K [2]; PI3 Kinase α) [nM],IC50 (Human mTOR (FLAG-TOR)) [nM],Molecule,IC50 (breast line MDA468) [nM]
2190,82,1.3,–,–,–,"O=C(Nc1ccccc1)Nc1ccc(-c2nc(N3CC4CCC(C3)O4)c3sccc3n2)cc1 [Example 411, 1-{4-[4-(8-oxa-3-azabicyclo[3.2.1]oct-3-yl)thieno[3,2-d]pyrimidin-2-yl]phenyl}-3-phenylurea]",380
> 10000,6270,34,–,–,–,"Oc1ccc(-c2nc(N3CC4CCC(C3)O4)c3sccc3n2)cc1 [Example 418, 4-[4-(8-oxa-3-azabicyclo[3.2.1]oct-3-yl)thieno[3,2-d]pyrimidin-2-yl]phenol]",17000
≥ 10000,324,0.31,–,–,–,"O=C(NCCO)Nc1ccc(-c2nc(N3CC4CCC(C3)O4)c3sccc3n2)cc1 [Example 409, 1-(2-hydroxyethyl)-3-{4-[4-(8-oxa-3-azabicyclo[3.2.1]oct-3-yl)thieno[3,2-d]pyrimidin-2-yl]phenyl}urea]",475
–,–,–,695,201,0.16,"O=C(Nc1ccncc1)Nc1ccc(-c2nc(N3CC4CCC(C3)O4)c3cnn(CC(F)(F)F)c3n2)cc1 [Example 104, 1-{4-[4-(8-oxa-3-azabicyclo[3.2.1]oct-3-yl)-1-(2,2,2-trifluoroethyl)-1H-pyrazolo[3,4-d]pyrimidin-6-yl]phenyl}-3-pyridin-4-ylurea]",–
> 10000,399,61,–,–,–,"Oc1cccc(-c2nc(N3CC4CCC(C3)O4)c3sccc3n2)c1 [Example 417, 3-[4-(8-oxa-3-azabicyclo[3.2.1]oct-3-yl)thieno[3,2-d]pyrimidin-2-yl]phenol]",7800
> 10000,1260,0.76,–,–,–,"CCNC(=O)Nc1ccc(-c2nc(N3CC4CCC(C3)O4)c3sccc3n2)cc1 [Example 407, 1-ethyl-3-{4-[4-(8-oxa-3-azabicyclo[3.2.1]oct-3-yl)thieno[3,2-d]pyrimidin-2-yl]phenyl}urea]",250
–,–,–,1030,168,0.19,"O=C(Nc1ccncc1)Nc1ccc(-c2nc(N3CC4CCC(C3)O4)c3cnn(CC(F)(F)F)c3n2)cc1 [Example 5, 1-{4-[4-(8-oxa-3-azabicyclo[3.2.1]oct-3-yl)-1-(2,2,2-trifluoroethyl)-1H-pyrazolo[3,4-d]pyrimidin-6-yl]phenyl}-3-pyridin-4-ylurea]",–
> 10000,–,100,–,–,–,"Nc1ccc(-c2nc(N3CC4CCC(C3)O4)c3sccc3n2)cc1 [Example 414, 4-[4-(8-oxa-3-azabicyclo[3.2.1]oct-3-yl)thieno[3,2-d]pyrimidin-2-yl]aniline]",30000
–,–,–,5000,1310,0.21,"CNC(=O)Nc1ccc(-c2nc(N3CC4CCC(C3)O4)c3cnn(C4CCC(O)CC4)c3n2)cc1 (centres unmarked) [Example 64, 1-{4-[1-(4-hydroxycyclohexyl)-4-(8-oxa-3-azabicyclo[3.2.1]oct-3-yl)-1H-pyrazolo[3,4-d]pyrimidin-6-yl]phenyl}-3-methylurea]",–
